Data as given in PubChem BioAssay (NCI).
Values joined by “and” are separate entries in the source; they are usually repeats but may differ in a detail not shown here. Equal entries are not always repeated.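 Growth conditions: 96-well plates. Treatment: test compound, 48 hours, 5 concentrations. Analysis: linear interpolation between bracketing concentrations; unreached endpoints set to highest concentration. The concentration for 50% growth inhibition is given as GI50. TGI denotes the concentration required for complete inhibition of growth.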

Assays:
Experiment in all cases: inhibition of tumour cell growth, NCI panel, 48 h
IGROV1 ovarian = system: IGROV1 ovarian
A498 renal = system: A498 renal
SK-MEL-28 melanoma = system: SK-MEL-28 melanoma
SF-268 CNS = system: SF-268 CNS
A549 NSCLC = system: A549 NSCLC
U251 CNS = system: U251 CNS
T-47D breast = system: T-47D breast
NCI-H226 lung = system: NCI-H226 lung
MALME-3M melanoma = system: MALME-3M melanoma
MCF7 breast = system: MCF7 breast

SMILES	TGI (IGROV1 ovarian)	TGI (A498 renal)	TGI (SK-MEL-28 melanoma)	TGI (SF-268 CNS)	TGI (A549 NSCLC)	TGI (U251 CNS)	TGI (T-47D breast)	TGI (NCI-H226 lung)	TGI (MALME-3M melanoma)	TGI (MCF7 breast)	GI50 (IGROV1 ovarian)	GI50 (A498 renal)	GI50 (SK-MEL-28 melanoma)	GI50 (SF-268 CNS)	GI50 (A549 NSCLC)	GI50 (U251 CNS)	GI50 (NCI-H226 lung)	GI50 (MALME-3M melanoma)	GI50 (MCF7 breast)	GI50 (T-47D breast) [µM]
Clc1ccccc1NN(Cc1ccccn1)c1ccccc1Cl	42.2 µM	34.9 µM	43.4 µM	52.4 µM	37.2 µM	29.6 µM	> 100 µM	31.6 µM	37.4 µM	> 100 µM										
CSc1ccc(/C=C2\CNC/C(=C\c3ccc(SC)cc3)C2=O)cc1	> 162 µM and 110 µg/mL	159 µM and 118 µg/mL	> 371 µM and 150 µg/mL	> 141 µM and 150 µg/mL	> 371 µM and 150 µg/mL	83.7 µM and 65.4 µg/mL	> 371 µM	104 µM and 150 µg/mL	> 371 µM and 150 µg/mL	> 371 µM and 150 µg/mL	26.3 µg/mL	35.2 µM and 33.2 µg/mL	150 µg/mL	44 µg/mL	150 µg/mL	34.8 µM and 21.7 µg/mL	99.7 µg/mL	150 µg/mL	> 371 µM and 58.8 µg/mL	
CCN(c1ccc(CO)c(Cl)c1)C(C)c1ccc(F)cc1 (stereo not given)	4 µM	0.843 µM	30.6 µM	31.9 µM	27.9 µM	22 µM	18.2 µM	2.31 µM	31.8 µM	27.1 µM	0.891 µM	0.117 µM	16.1 µM	17 µM	13.1 µM	9 µM	0.49 µM	16.7 µM	12.5 µM	4.22
NS(=O)(=O)c1ccc(N2Cc3cc(Cl)ccc3OC3=C2C(=O)N(CC2CCCCC2)C3=O)cc1	2.83 µM	2.85 µM	2.57 µM	2.69 µM	3.99 µM	2.65 µM	1.86 µM	3.6 µM	2.83 µM	1.9 µM	1.34 µM	1.26 µM	1.16 µM	1.22 µM	2.13 µM	1.3 µM	1.54 µM	1.3 µM	0.364 µM	0.365
COC(=O)c1ccc2c(c1)C(NC(C)=O)CCc1cc(OC)c(OC)c(OC)c1-2 (stereo not given)	> 41.1 µM	4.27 µM	> 100 µM	77.9 µM	> 100 µM	16.5 µM	> 100 µM	1.17 µM	> 100 µM	> 100 µM										
COC(=O)C1=C(OC(=O)c2ccc(Cl)cc2)C(C(=O)OC)[C@@]2(O)[C@@H](C(=O)OC)C(c3ccccc3C(F)(F)F)C[C@@H]1[C@@H]2C(=O)OC (stereo not given in full)		7.25 µM	> 100 µM	> 100 µM	28.8 µM	21.4 µM	> 100 µM			87.5 µM		1.76 µM	6.69 µM	11 µM	3.59 µM	3.26 µM			10.7 µM	4.82
O=C(O)c1cc[c]([Hg][S]c2ncnc3nc[nH]c23)cc1	23.8 µM	> 87.1 µM	32 µM	19 µM	33.7 µM	28.2 µM	36.7 µM	> 68 µM	17.9 µM	> 38.9 µM	9.25 µM	> 35.3 µM	17.4 µM	5.15 µM	16.4 µM	14.4 µM	> 39 µM	3.35 µM	2.6 µM	4.52
Clc1ccc(COC(Cn2ccnc2)c2ccc(Cl)cc2Cl)cc1 (stereo not given)	12.3 µM and 25.8 µM and 26.1 µM	8.22 µM and 27.8 µM and 24.2 µM	16.6 µM and 34.6 µM and 30 µM	18.3 µM and 36.1 µM and 36.7 µM	12.1 µM and 27 µM and 23.9 µM	7.46 µM and 28.6 µM and 26 µM	8.76 µM and 23.4 µM and 19.9 µM	22.1 µM and 50 µM and 11.7 µM	6.36 µM and 28.2 µM and 31.1 µM	6.63 µM and 28.7 µM and 24 µM	2.62 µM	1.23 µM	4.66 µM	3.42 µM	2.78 µM	2.04 µM		2.22 µM	2.43 µM	2.26
CCc1nc(N)nc(N)c1-c1ccc([N+](=O)[O-])c(NCc2ccccc2)c1	26.3 µM	32.9 µM	35.1 µM	40.3 µM	24.8 µM	30.1 µM	> 46.8 µM	46.8 µM		40.2 µM										
COc1cc(-c2oc3ccccc3c(=O)c2O)cc(OC)c1OC	> 100 µM	> 100 µM	> 100 µM	> 100 µM	> 100 µM	> 100 µM	> 100 µM		> 100 µM	> 100 µM										
N#CC(C#N)SCc1ccccc1	> 100 µM	> 100 µM	> 100 µM	> 100 µM	> 100 µM	56.6 µM	> 100 µM	76.6 µM	> 100 µM	> 100 µM										
S=C(N/N=C/c1cc(Cl)cc(Cl)c1)NC12CC3CC(CC(C3)C1)C2	> 100 µM	7.73 µM	> 100 µM	> 100 µM	> 100 µM	> 33.6 µM	> 100 µM	> 100 µM	50.7 µM	> 100 µM	8.8 µM	2.19 µM	14.4 µM	6.18 µM	3.51 µM	3.18 µM	> 29.9 µM	5.12 µM	> 82.3 µM	6.94
COc1ccc(-c2cc(-c3ccc(Cl)cc3)c(C#N)c(=O)n2CCCCC(=O)Nc2ccccc2N)cc1	> 100 µM	48.9 µM	> 100 µM	> 100 µM	> 100 µM	> 100 µM	> 100 µM	70.9 µM	31.1 µM	> 100 µM	4.9 µM	1.79 µM	9.13 µM	22.1 µM	4.94 µM	7.97 µM	6.26 µM	4.7 µM	4.03 µM	4.44
N/C(=N\OC(=O)c1ccccc1)C(C(=O)NOC(=O)c1ccccc1)C1CCCCC1 (stereo not given)	3.92 µM	28.7 µM	50.7 µM	6.7 µM	5.05 µM	3.87 µM	28.2 µM	34.1 µM	27.5 µM	23 µM	1.66 µM	14.8 µM	16.2 µM	2.39 µM	2.08 µM	1.78 µM	15.8 µM	10.1 µM	8.22 µM	7.57
Cc1cc2c(cc1C)NC1=C(N2)OC(c2c[nH]c3ccc(COc4ccccc4)cc23)C1=O (stereo not given)	> 100 µM	> 100 µM	> 100 µM	> 100 µM	> 100 µM	> 100 µM	> 100 µM	> 100 µM	> 100 µM	> 100 µM										
